Results from PMC10320005, “In Campylobacter jejuni, a new type of chaperone receives heme from ferrochelatase” (Frontiers in Genetics, 2023).

Tests used:
CgdH1 (Cj0992c) = target: T1, CgdH1 (Cj0992c) (Campylobacter jejuni, UniProt Q0P9R0); experiment: HPLC-MS of porphyrin products; format: biochemical; settings: 10 µM copro'gen III, 1 mM SAM, 0.5 mM NADH, E. coli cell extract added, anaerobic, overnight, room temperature; incomplete reaction via harderoporphyrin intermediate
T1 construct: full length (451 residues), C-terminal His-tag (pET-23b), E. coli BL21STAR(DE3)pLysS; Fe-S cluster reconstituted
T1 sequence (Q0P9R0 1-451): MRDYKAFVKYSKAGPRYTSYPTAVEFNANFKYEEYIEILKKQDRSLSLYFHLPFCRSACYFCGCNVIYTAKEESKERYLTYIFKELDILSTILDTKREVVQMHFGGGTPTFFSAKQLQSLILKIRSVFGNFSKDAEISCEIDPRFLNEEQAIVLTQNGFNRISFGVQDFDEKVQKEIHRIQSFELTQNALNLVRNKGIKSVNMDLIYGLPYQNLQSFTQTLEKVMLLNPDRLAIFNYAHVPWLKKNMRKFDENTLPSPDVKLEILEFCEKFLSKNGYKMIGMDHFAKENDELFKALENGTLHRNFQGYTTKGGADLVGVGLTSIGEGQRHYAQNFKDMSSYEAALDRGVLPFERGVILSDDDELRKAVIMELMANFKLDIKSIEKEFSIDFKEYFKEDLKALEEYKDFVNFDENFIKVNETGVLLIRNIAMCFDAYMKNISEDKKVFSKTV

CgdH2 (Cj0363c) = target: T2, CgdH2 (Cj0363c) (Campylobacter jejuni, UniProt Q0PBE7); experiment: UV-visible titration of apo-protein, absorbance difference at […] nm; format: binding
T2 construct: gene hemN; full length (448 residues; 447 aa in Discussion), C-terminal His-tag (pET-23b), E. coli BL21STAR(DE3)pLysS; apo-form without Fe-S cluster
T2 sequence (Q0PBE7 1-448): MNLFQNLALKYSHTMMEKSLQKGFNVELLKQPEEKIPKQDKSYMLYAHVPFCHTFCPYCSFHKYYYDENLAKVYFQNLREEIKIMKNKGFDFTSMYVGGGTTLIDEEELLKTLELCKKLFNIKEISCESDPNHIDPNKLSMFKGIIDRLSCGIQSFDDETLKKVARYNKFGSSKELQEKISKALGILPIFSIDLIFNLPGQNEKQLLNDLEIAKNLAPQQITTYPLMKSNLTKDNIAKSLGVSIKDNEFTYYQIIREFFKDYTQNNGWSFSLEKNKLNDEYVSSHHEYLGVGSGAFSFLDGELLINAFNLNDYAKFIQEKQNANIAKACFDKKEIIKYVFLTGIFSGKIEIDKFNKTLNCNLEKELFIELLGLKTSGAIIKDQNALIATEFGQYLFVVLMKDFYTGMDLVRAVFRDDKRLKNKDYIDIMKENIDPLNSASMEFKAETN

PgdH2 (Cj0362) = target: T3, PgdH2 (Cj0362) (Campylobacter jejuni, UniProt Q0PBE8); experiment: fluorescence of protoporphyrin IX ([…] nm) with E. coli membrane fraction versus empty plasmid; format: biochemical; settings: 500 nM proto'gen IX, 150 mM NaCl, 20% glycerol, 5 mM DTT, Tris-HCl pH 8, aerobic
T3 construct: expressed from pPR-IBA2 (Strep-tag vector) in E. coli BL21STAR(DE3)pLysS; membrane fraction, not purified
T3 sequence (Q0PBE8 1-150): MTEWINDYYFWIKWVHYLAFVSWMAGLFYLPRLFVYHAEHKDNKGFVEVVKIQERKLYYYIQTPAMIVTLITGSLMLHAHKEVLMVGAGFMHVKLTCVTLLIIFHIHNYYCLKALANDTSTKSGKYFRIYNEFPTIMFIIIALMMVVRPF

PpfC (Cj0503c) = target: T4, PpfC (Cj0503c) (Campylobacter jejuni, UniProt Q9PI08); experiment: ferrochelatase activity, decrease of protoporphyrin IX at […] nm; format: biochemical; settings: 10 µM protoporphyrin IX, 20 µM (NH4)2Fe(SO4)2, 5 mM DTT, 150 mM NaCl, 20% glycerol, Tris-HCl pH 8, anaerobic, room temperature
T4 construct: gene hemH; N-terminal Strep-tag (pPR-IBA2), E. coli BL21STAR(DE3)pLysS, solubilised with Triton X-100
T4 sequence (Q9PI08 1-303): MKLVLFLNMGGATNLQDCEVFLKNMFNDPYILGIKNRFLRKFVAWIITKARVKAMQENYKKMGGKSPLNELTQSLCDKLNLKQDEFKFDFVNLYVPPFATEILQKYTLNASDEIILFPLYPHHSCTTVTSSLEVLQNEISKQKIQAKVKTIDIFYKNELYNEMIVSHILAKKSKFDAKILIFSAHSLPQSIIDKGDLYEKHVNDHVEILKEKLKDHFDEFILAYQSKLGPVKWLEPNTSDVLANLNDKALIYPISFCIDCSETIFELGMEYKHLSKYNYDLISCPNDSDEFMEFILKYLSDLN

UroD (Cj1243) = target: T5, UroD (Cj1243) (Campylobacter jejuni, UniProt Q9PN54); experiment: linked assay, UV-visible spectroscopy and HPLC-MS of coproporphyrin III; format: biochemical; settings: uro'gen III made in situ from porphobilinogen with D. vulgaris PbgS and UroS; Tris-HCl pH 8, anaerobic, overnight
T5 construct: gene hemE; N-terminal Strep-tag (pPR-IBA2), E. coli BL21STAR(DE3)pLysS
T5 sequence (Q9PN54 1-340): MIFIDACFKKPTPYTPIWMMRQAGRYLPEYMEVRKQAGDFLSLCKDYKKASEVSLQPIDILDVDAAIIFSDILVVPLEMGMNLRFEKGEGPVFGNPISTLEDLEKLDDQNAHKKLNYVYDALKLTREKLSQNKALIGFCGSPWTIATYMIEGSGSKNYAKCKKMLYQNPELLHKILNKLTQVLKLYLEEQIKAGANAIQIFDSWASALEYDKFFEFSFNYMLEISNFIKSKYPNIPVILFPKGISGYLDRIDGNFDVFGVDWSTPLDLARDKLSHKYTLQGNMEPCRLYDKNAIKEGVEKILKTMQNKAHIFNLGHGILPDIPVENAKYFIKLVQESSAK

Cc1c2[nH]c(c1CCC(=O)O)Cc1[nH]c(c(CCC(=O)O)c1C)Cc1[nH]c(c(CCC(=O)O)c1C)Cc1[nH]c(c(C)c1CCC(=O)O)C2 [copro'gen III]
HPLC-MS of porphyrin products (CgdH1 (Cj0992c)): The expected final reactional product, protoporphyrin IX (the oxidized form of proto'gen IX), was observed

C=CC1=C(C)C2=Cc3c(C=C)c(C)c4[n]3[Fe]([Cl])[n]3c(c(C)c(CCC(=O)O)c3=CC3=NC(=C4)C(C)=C3CCC(=O)O)=CC1=N2 [hemin]
Kd (CgdH2 (Cj0363c)): 4.9 ± 1 µM

C=Cc1c2[nH]c(c1C)Cc1[nH]c(c(CCC(=O)O)c1C)Cc1[nH]c(c(C)c1CCC(=O)O)Cc1[nH]c(c(C)c1C=C)C2 [proto'gen IX]
fluorescence of protoporphyrin IX (390/630 nm) with E. coli membrane fraction ve (PgdH2 (Cj0362)): Cells containing Cj0362 exhibited much higher activity for the oxidation of proto'gen IX

C=CC1=C(C)c2cc3[nH]c(cc4nc(cc5[nH]c(cc1n2)c(C)c5CCC(=O)O)C(CCC(=O)O)=C4C)c(C)c3C=C [protoporphyrin IX]
ferrochelatase activity, decrease of protoporphyrin IX at 408 nm (PpfC (Cj0503c)): C. jejuni Cj0503c exhibits a ferrochelatase specific activity

O=C(O)CCc1c2[nH]c(c1CC(=O)O)Cc1[nH]c(c(CC(=O)O)c1CCC(=O)O)Cc1[nH]c(c(CC(=O)O)c1CCC(=O)O)Cc1[nH]c(c(CCC(=O)O)c1CC(=O)O)C2 [uro'gen III]
linked assay, UV-visible spectroscopy and HPLC-MS of coproporphyrin III (UroD (Cj1243)): confirmed the formation of copro'gen III
